Tests used:
[1] = test system: MMTV-Myc mouse breast cancer cells; assay: Phenotypic (morphology) changes in culture; format: cell-based
Source text: FIG. 1: Expression of a decoy peptide corresponding to MAD Sin3 interaction domain (SID) induces markers of differentiation and contact inhibition in MDA-MB-231 breast cancer cells. A. Schematic of the SID peptides and expression constructs used in this study. Shown in the upper panel are the design and sequence of the Tat-SID peptide and Tat-SID^SCR scrambled control. The Tat-SID peptide corresponds to amino acids 5-24 of MAD. This sequence binds Sin3 PAH2 with high affinity and has been previously used to study SID-PAH2 interactions in vitro. Peptides contain a leader sequence (YGRKKRRQGGG, SEQ ID No. 5) corresponding to the human immunodeficiency virus type 1 Tat arginine-rich RNA-binding motif (ARM), which has been mutated (RRR>GGG) to improve nuclear entry. B. Morphological changes induced by SID in MDA-MB-231 and MMTV-Myc. […] D. Confocal IF analyses showing the re-expression of membrane-associated E-cadherin induced by the expression of SID in MDA-MB-231 cells (top row) and MMTV-Myc cells (bottom row) E. Re-expression of nuclear RARβ in MDA-MB-231 cells detected by immunofluorescence microscopy. […]

Sin3B and MAD = assay: Mammalian two-hybrid assay, GAL4 DBD-Sin3B and VP16AD-MAD in 293T cells; format: cell-based; conditions: 15 μM peptide applied to the cell culture medium
Source text: FIG. 2: SID decoy peptide blocks interactions between Sin3 PAH2 and MAD and interferes with recruitment of members of the Sin3 co-repressor complex. A. GST pull-down of MAD by the Sin3A PAH2 domain is blocked by SID peptide. Sin3A PAH2 domain (amino acids 306-450) was expressed in E. coli as a GST fusion and used in a pull down assay for in vitro interaction with 35S-methionine labeled MAD (left panel) or MAD immunoprecipitated from MDA-MB-231 cell lysates (right panel). 25% of input is shown for in vitro translated MAD and 10% of input for immunoprecipitated MAD (input). Assays were performed using 15 μM Tat-SID or Tat-SID^SCR peptide unless otherwise indicated. […] 293T cells were transfected with GAL4^uas×5-Tk-Luc reporter together with mammalian two-hybrid vectors expressing a fusion of Sin3B with GAL4 DNA binding domain (GAL4^DBD) and fusions of MAD and HDAC1 (columns 5-12 and 14-21, respectively) with VP16 activation domain (VP16^AD), as well as SID expression vectors, as indicated. […]
24 hours prior to transfection, 293T cells were plated at 50-60% confluence on 48-well plates. […] 48 hours post-transfection luciferase activity was measured using the Dual Luciferase assay system (Promega) on a Mithras LB940 plate reader (Berthold Technologies). […]

[2] = molecular target: T1, PAH2 domain of Sin3A and MAD (Mus musculus, UniProt Q60520); assay: GST pull-down of MAD by the Sin3A PAH2 domain; format: binding
T1 construct: amino acids 306-450 of mSin3A; made in house; host or cells: E. coli (GST-PAH2); MAD from rabbit reticulocyte in vitro translation or immunoprecipitated from MDA-MB-231 lysate
T1 sequence (Q60520 306-450): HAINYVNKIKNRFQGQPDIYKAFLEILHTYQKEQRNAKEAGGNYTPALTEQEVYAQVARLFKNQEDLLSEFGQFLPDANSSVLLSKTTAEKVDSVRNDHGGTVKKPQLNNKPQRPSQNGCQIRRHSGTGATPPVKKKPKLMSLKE
Source text: FIG. 2: SID decoy peptide blocks interactions between Sin3 PAH2 and MAD and interferes with recruitment of members of the Sin3 co-repressor complex. A. GST pull-down of MAD by the Sin3A PAH2 domain is blocked by SID peptide. Sin3A PAH2 domain (amino acids 306-450) was expressed in E. coli as a GST fusion and used in a pull down assay for in vitro interaction with 35S-methionine labeled MAD (left panel) or MAD immunoprecipitated from MDA-MB-231 cell lysates (right panel). 25% of input is shown for in vitro translated MAD and 10% of input for immunoprecipitated MAD (input). Assays were performed using 15 μM Tat-SID or Tat-SID^SCR peptide unless otherwise indicated. […]
GST pull-down assays were performed using the ProFound™ pull-down GST protein:protein interaction kit (Pierce) according to the manufacturer's instructions. […] Gels containing samples from MDA-MB-231 cell lysates were analyzed by Western immunoblot according to standard protocols. Pulled-down MAD was detected using mouse monoclonal anti-MAD (F-1) antibody (Santa Cruz), anti-mouse secondary antibody (Jackson ImmunoResearch), and enhanced chemiluminescence (ECL, Peirce).

Sequence: YGRKKRRQGGGVRMNIQMLLEAADYLERRER [SID peptide]
- phenotypic change of cell morphology [1]: cobblestone monolayers and well defined cell-cell contact accompanied by cell growth contact inhibition
- increase in luciferase activity compared to GAL4 DBD-Sin3B and VP16AD-MAD co-expression (Sin3B and MAD): confirmed, albeit to a lesser degree
- blocking of interaction between PAH2 domain of Sin3A and in vitro translated MAD ([2]; 35S-methionine labeled MAD, 15 μM peptide unless otherwise indicated): blocked interactions
- blocking of interaction between PAH2 domain of Sin3A and MAD immunoprecipitated from MDA-MB-231 cells ([2]; MAD immunoprecipitated from MDA-MB-231 cell lysates, 15 μM peptide): blocked interactions

Source: US20110003753A1, “COMPOSITIONS AND METHODS FOR DISRUPTING THE FUNCTION OF THE TRANSCRIPTIONAL REPRESSOR COMPONENT Sin3A-PAH2 DOMAIN TO INDUCE DIFFERENTIATION AND GROWTH INHIBITION IN BREAST CANCER” (SAMUEL WAXMAN CANCER RESEARCH FOUNDATION, priority 2009, published 2011)
